Results reported in article PMC10569036.

test: shake flask on a mixture of 185; loss from the water phase only; LC-Orbitrap peak areas; conditions: room

| Structure (SMILES) | log partition 1-octanol / HPLC water, unbuffered, traces of methanol / DMSO [log10] | log partition butyl acetate / HPLC water, unbuffered, traces of methanol / DMSO [log10] | log partition chloroform / HPLC water, unbuffered, traces of methanol / DMSO [log10] | log partition cyclohexane / HPLC water, unbuffered, traces of methanol / DMSO [log10] | log partition dichloromethane / HPLC water, unbuffered, traces of methanol / DMSO [log10] | log partition n-hexane / HPLC water, unbuffered, traces of methanol / DMSO [log10] | log partition n-octane / HPLC water, unbuffered, traces of methanol / DMSO [log10] | log partition n-undecane / HPLC water, unbuffered, traces of methanol / DMSO [log10] | log partition oleylalcohol / HPLC water, unbuffered, traces of methanol / DMSO [log10] | log partition toluene / HPLC water, unbuffered, traces of methanol / DMSO [log10] |
| --- | --- | --- | --- | --- | --- | --- | --- | --- | --- | --- |
| CC(=O)CCc1ccc(OC(C)=O)cc1 | -0.06689 | 0.7696 | 1.426 | -0.7757 | 1.412 | -1.074 | -1.39 | -1.078 | -0.5711 | -0.2898 |
| O=P(OC(CCl)CCl)(OC(CCl)CCl)OC(CCl)CCl | 0.3708 | 0.4116 | 0.2335 | 0.5355 | 0.1218 | 0.2465 | 0.2541 | 0.3474 | 0.1893 | 0.1777 |
| CCCN(CCC)c1c([N+](=O)[O-])cc(C(C)C)cc1[N+](=O)[O-] | 1.667 | 0.7238 | 0.1749 | -0.3058 | -0.415 | 0.4636 | -0.4473 | -0.3356 | 0.7657 | 0.0275 |
| CC(C)(C#N)Nc1nc(Cl)nc(NC2CC2)n1 | 2.353 | 1.721 | 2.761 | -0.1053 | 2.268 | -0.13 | 0.2329 | -0.4376 | 1.837 | 1.234 |
| CN1C(=O)CCS(=O)(=O)C1c1ccc(Cl)cc1 (centres unmarked) | – | – | 3.591 | – | 5.525 | – | – | – | – | 4.586 |
| Cc1cc(O)cc(C)c1Cl | 0.7604 | 0.7531 | 0.7311 | 0.5528 | 0.8657 | 0.611 | 0.5049 | 0.3954 | 0.7156 | 0.8203 |
| C=CC(=O)OCC1CC2CC1C1CCC(COC(=O)C=C)C21 (centres unmarked) | 0.2948 | -0.12 | 0.01457 | -0.1351 | 0.05615 | -0.1023 | -0.1158 | 0.0297 | 0.1091 | 0.1587 |
| Nc1ccc(/N=N/c2ccccc2)cc1 | 1.65 | 1.2 | 1.001 | 1.333 | 1.434 | 1.192 | 1.439 | 1.239 | 1.015 | 0.9966 |
| FC(F)C(F)(F)OCC(Cn1cncn1)c1ccc(Cl)cc1Cl (centres unmarked) | 1.148 | 1.223 | 0.6534 | 0.9109 | 1.238 | 0.4737 | 0.5004 | 0.1193 | 0.4709 | 1.159 |
| CCOC(=O)CC(=O)c1ccccc1 | -0.2282 | -0.1902 | 0.1944 | -1.116 | -0.2025 | -1.048 | -1.147 | -0.8216 | -0.4257 | -0.3454 |
| CCCC1COC(Cn2cncn2)(c2ccc(Cl)cc2Cl)O1 (centres unmarked) | 0.3483 | 0.1767 | 0.2115 | 0.2977 | 0.2897 | 0.2474 | 0.3088 | 0.1588 | 0.003105 | 0.07569 |
| CCOc1ccc2c(c1)C(C)CC(C)(C)N2 (centres unmarked) | 1.166 | 0.4802 | 0.1266 | 0.1355 | 0.03099 | 0.4617 | 0.03342 | 0.09286 | 0.8298 | -0.1412 |
| CC(=O)c1ccc2ccccc2c1 | 0.3821 | -0.9282 | -0.4983 | -0.222 | -0.6955 | 0.5227 | 0.6442 | 0.226 | -0.06645 | -0.371 |
| CCCCCCOc1cc(C)c(O)c(C)c1C | -0.6155 | -0.05403 | 0.3185 | -0.4525 | -0.07725 | -0.4691 | -0.1513 | -0.6506 | 0.4249 | -0.2013 |
| CCCCCCCCCCCC(=O)OCC(O)CO (centres unmarked) | -0.5214 | -0.773 | -0.7717 | -1.167 | -0.6352 | -1.755 | -1.639 | -1.584 | -1.087 | -1.18 |
